{"source": "patent US20080096926A1", "about": "“Treatment Of Cognitive Impairment Using A Selective Dopamine D1 Receptor Agonist” (DrugAbuse Sciences SAS, priority 2002, published 2008)", "origin": "cited, not measured here", "key": {"[1]": {"test_system": "schizophrenia"}, "[2]": {"test_system": "MPTP treated monkeys", "conditions": "for anti-parkinsonian activity: MPTP treated monkeys"}, "[3]": {"test_system": "rats"}, "[4]": {"test_system": "young control monkeys and aged monkeys"}, "[5]": {"test_system": "non-human primate model of cognitive impairment"}, "[6]": {"test_system": "monkeys", "conditions": "0.1, 0.3 and 1 mg/kg/day IM"}, "[7]": {"test_system": "MPTP-lesioned macaques"}, "[8]": {"test_system": "prefrontal cortex of rhesus monkeys", "conditions": "local injections into the prefrontal cortex of rhesus monkeys"}, "[9]": {"test_system": "healthy volunteers", "conditions": "0.1 mg, 32 healthy volunteers"}}, "note": "Where a name gives a salt, the structure may show the parent alone.", "data": [{"smiles": "Cc1nc2n(c(=O)c1CCN1CCC(c3noc4cc(F)ccc34)CC1)CCCC2", "note": "[Risperidone, risperidone]", "values": [{"measurement": "executive functioning", "setting": "[1]; schizophrenia", "result": "positive effects"}, {"measurement": "verbal learning and memory", "setting": "[1]; schizophrenia", "result": "inconsistent results"}, {"measurement": "working memory", "setting": "[1]; schizophrenia", "result": "positive effects"}]}, {"smiles": "CN1CCN(C2=Nc3cc(Cl)ccc3Nc3ccccc32)CC1", "note": "[clozapine]", "values": [{"measurement": "severe side effects", "setting": "[1]; in vivo", "result": "agranulocytosis"}]}, {"smiles": "Oc1cc2c(cc1O)C(c1ccccc1)CNCC2", "note": "(stereo not drawn) [SKF 38393]", "values": [{"measurement": "anti-parkinsonian activity", "setting": "[2]", "result": "without anti-parkinsonian activity"}, {"measurement": "food intake", "setting": "[3]", "result": "decrease food intake"}, {"measurement": "memory performance in monkeys following administration of D1 agonists", "setting": "[4]", "result": "Improved memory performance"}]}, {"smiles": "CCCc1cc2c(s1)CN[C@@H]1CCc3cc(OC(C)=O)c(OC(C)=O)cc3[C@@H]21", "note": "[DAS-431, (−)-trans 9,10-diacetyloxy-2-propyl-4,5,5a,6,7,11b-hexahydro-3-thia-5-azacyclopent-1-ena[c] phenanthrene hydrochloride]", "values": [{"measurement": "reversal of haloperidol-induced working memory impairment", "setting": "[5]; 0.01 μg/kg to 0.1 μg/kg IM, five blocks of five consecutive days", "result": "reverse the haloperidol effects"}, {"measurement": "persistence of treatment effect after the final treatment", "setting": "[5]; in some monkeys", "result": "more than a year"}, {"measurement": "antiparkinsonian activity (reported for D1 agonists)", "setting": "[2]; model not stated", "result": "antiparkinsonian activity"}, {"measurement": "dose relationship of adverse events", "setting": "1 mg to 40 mg IV per day", "result": "no clear dose relationship with the exception of nausea and vomiting in the cocaine abuser population and of dizziness in all subjects"}, {"measurement": "tolerance to side effects", "setting": "Parkinson's disease population", "result": "rapid tolerance to nausea and vomiting"}, {"measurement": "EKG", "setting": "in vivo", "result": "Transitory EKG changes"}, {"measurement": "severity of adverse events", "setting": "in vivo", "result": "mild or moderate"}, {"measurement": "adverse events", "setting": "previous treatment protocols", "result": "high incidence of dopamine related symptoms such as nausea, vomiting, hypotension, postural hypotension, dizziness, injection and application site reactions"}, {"measurement": "tolerance", "setting": "[6]", "result": "tolerance may have developed after 3 days of treatment"}, {"measurement": "effect following repeated administration", "setting": "[7]; other studies (Michaelides et al. 1995)", "result": "potent effect is maintained"}, {"measurement": "efficacy over time", "setting": "[7]; three-time daily 0.32 mg/kg s.c. for thirty days", "result": "no difference over time"}]}, {"smiles": "Oc1cc2c(cc1O)[C@H]1c3ccccc3CN[C@@H]1CC2", "note": "(racemic) [dihydrexidine]", "values": [{"measurement": "anti-parkinsonian activity", "setting": "[2]", "result": "attenuates these parkinsonian signs while increasing eye blink rate"}, {"measurement": "memory performance in monkeys following administration of D1 agonists", "setting": "[4]", "result": "Improved memory performance"}, {"measurement": "memory performance", "setting": "[4]; young control monkeys and aged monkeys", "result": "improves memory performance"}]}, {"smiles": "CN1CCc2cc(Cl)c(O)cc2[C@H]2c3ccccc3CC[C@@H]21", "note": "[SCH39166]", "values": [{"measurement": "performance on working memory tasks", "setting": "[8]", "result": "induce errors and increase latency of performance"}]}, {"smiles": "CCCN1C[C@H](CSC)C[C@@H]2c3cccc4[nH]cc(c34)C[C@H]21", "note": "[pergolide]", "values": [{"measurement": "effect on spatial memory", "setting": "[9]", "result": "positive effect"}]}, {"smiles": "C=CCN1CCc2c(cc(O)c(O)c2Cl)C(c2ccccc2)C1", "note": "(stereo not drawn) [SKF 82958]", "values": [{"measurement": "anti-parkinsonian activity", "setting": "[2]", "result": "increase locomotor activity and improve parkinsonian score"}]}]}
